Assay results published in patent US20220348567A1, “NOVEL OXADIAZOLE COMPOUNDS CONTAINING 5- MEMBERED HETEROAROMATIC RING FOR CONTROLLING OR PREVENTING PHYTOPATHOGENIC FUNGI” (PI INDUSTRIES LTD., priority 2019, published 2022).

Legend:
Parastagonospora nodorum = Parastagonospora nodorum (PARANO) microtiter growth inhibition assay, OD600; format: cell-based; details: 18° C., 15-18 days, read-out: control (growth inhibition by OD600)
Protocol: Potato dextrose (PDB) liquid medium (Difco) containing a […] (10^5 spores/ml) spore suspension was prepared. For the inhibition assay, each test compound was solved in dimethyl sulfoxide. 100 μl of the test media-solution was added to a 96-well microtiter plate, consequently, the same volume (100 μl) of spore suspension was added to the well making the final test concentrations and the plate was incubated at 18° C. for 15-18 days. The growth inhibition was evaluated by measuring the OD600. Percent inhibition was calculated with the below formula: I=([…])*100 Where T=treatment, C═control, and B=blank

Phakopsora pachyrhizi = Phakopsora pachyrhizi test in soybean, greenhouse, preventive activity; format: in vivo, Phakopsora pachyrhizi on soybean plants; details: 24 h, spray one day before inoculation, soybean plants, read-out: control (efficacy, disease severity rating versus untreated control)
Protocol: Compounds were dissolved in 2% dimethyl sulfoxide/acetone and then mixed with water containing emulsifier to the calibrated spray volume of 50 mL. Each spray solution was poured into a spray bottle for further application. To test the preventive activity of the compound, healthy young Soybean plants, raised in the greenhouse, were sprayed with the active compound preparation at the stated application rate inside the spray cabinets using hollow cone nozzles. One day aftertreatment, the plants were inoculated with a conidial suspension containing 2×10^5Phakopsora […]. The inoculated plants were then kept in a greenhouse chamber at 22-24° C. temperature and 80-90% relative humidity for disease expression. A visual assessment of the compound's performance was carried out by rating the disease severity (0-100% scale) on treated plants 3, 7, 10 and 15 days after application. Efficacy (% control) of the compound was calculated by comparing the disease rating in the treatment with the one of the untreated control. The sprayed plants were also assessed for plant damage by recording symptoms like necrosis, chlorosis and stunting.

Row | SMILES | inhibition at 300 ppm (Parastagonospora nodorum) | pest or weed control at 500 ppm (Phakopsora pachyrhizi)
1 | CS(C)(=O)=NC(=O)c1ccn(-c2ccc(-c3noc(C(F)(F)F)n3)cc2)c1 [Compound 30, N-(dimethyl(oxo)-λ^6-sulfanylidene)-1-(4-(5-(trifluoromethyl)-1,2,4-oxadiazol-3-yl)phenyl)-1H-pyrrole-3-carboxamide] | ≥ 70% | ≤ 70%
2 | O=C(Cc1cn(-c2ccc(-c3noc(C(F)(F)F)n3)cc2)cn1)NCc1ccccc1F [Compound 7, N-(2-fluorobenzyl)-2-(1-(4-(5-(trifluoromethyl)-1,2,4-oxadiazol-3-yl)phenyl)-1H-imidazol-4-yl)acetamide] | – | ≤ 70%
3 | COc1ccc(NC(=O)Cc2cn(-c3ccc(-c4noc(C(F)(F)F)n4)cc3)cn2)cc1 [Compound 2, N-(4-methoxyphenyl)-2-(1-(4-(5-(trifluoromethyl)-1,2,4-oxadiazol-3-yl)phenyl)-1H-imidazol-4-yl)acetamide] | – | ≤ 70%
4 | O=C(Cc1cn(-c2ccc(-c3noc(C(F)(F)F)n3)cc2)cn1)Nc1ccccc1 [Compound 15, N-phenyl-2-(1-(4-(5-(trifluoromethyl)-1,2,4-oxadiazol-3-yl)phenyl)-1H-imidazol-4-yl)acetamide] | ≥ 70% | ≤ 70%
5 | COc1ccc(C)c(NC(=O)Cc2cn(-c3ccc(-c4noc(C(F)(F)F)n4)cc3)cn2)c1 [Compound 16, N-(5-methoxy-2-methylphenyl)-2-(1-(4-(5-(trifluoromethyl)-1,2,4-oxadiazol-3-yl)phenyl)-1H-imidazol-4-yl)acetamide] | ≥ 70% | ≤ 70%
6 | O=C(Cc1cn(-c2ccc(-c3noc(C(F)(F)F)n3)cc2)cn1)NCc1ccc(F)cc1 [Compound 6, N-(4-fluorobenzyl)-2-(1-(4-(5-(trifluoromethyl)-1,2,4-oxadiazol-3-yl)phenyl)-1H-imidazol-4-yl)acetamide] | ≥ 70% | ≤ 70%
7 | CS(=O)(=NC(=O)c1cnn(-c2ccc(-c3noc(C(F)(F)F)n3)cc2)c1)c1ccccc1 (centres unmarked) [Compound 22, N-(methyl(oxo)(phenyl)-λ^6-sulfaneylidene)-1-(4-(5-(trifluoromethyl)-1,2,4-oxadiazol-3-yl)phenyl)-1H-pyrazole-4-carboxamide] | – | ≤ 70%
8 | O=C(Cc1cn(-c2ccc(-c3noc(C(F)(F)F)n3)cc2)cn1)N1CCCC1 [Compound 3, 1-(pyrrolidin-1-yl)-2-(1-(4-(5-(trifluoromethyl)-1,2,4-oxadiazol-3-yl)phenyl)-1H-imidazol-4-yl)ethan-1-one] | ≥ 70% | ≤ 70%
9 | O=C(Cc1cn(-c2ccc(-c3noc(C(F)(F)F)n3)cc2)cn1)Nc1ccc(Cl)cc1 [Compound 9, N-(4-chlorophenyl)-2-(1-(4-(5-(trifluoromethyl)-1,2,4-oxadiazol-3-yl)phenyl)-1H-imidazol-4-yl)acetamide] | – | ≤ 70%
10 | COc1ccccc1S(C)(=O)=NC(=O)c1cnn(-c2ccc(-c3noc(C(F)(F)F)n3)cc2)c1 (centres unmarked) [Compound 20, N-((2-methoxyphenyl)(methyl)(oxo)-λ^6-sulfaneylidene)-1-(4-(5-(trifluoromethyl)-1,2,4-oxadiazol-3-yl)phenyl)-1H-pyrazole-4-carboxamide] | – | ≤ 70%
11 | FC(F)(F)c1nc(-c2ccc(-n3cnc(CSc4ccccc4)c3)cc2)no1 [Compound 43, 3-(4-(4-((phenylthio)methyl)-1H-imidazol-1-yl)phenyl)-5-(trifluoromethyl)-1,2,4-oxadiazole] | ≥ 70% | –
12 | COCCS(=O)(=NC(=O)c1ccn(-c2ccc(-c3noc(C(F)(F)F)n3)cc2)c1)c1ccccn1 (centres unmarked) [Compound 25, N-((2-methoxyethyl)(oxo)(pyridin-2-yl)-λ^6-sulfanylidene)-1-(4-(5-(trifluoromethyl)-1,2,4-oxadiazol-3-yl)phenyl)-1H-pyrrole-3-carboxamide] | – | ≤ 70%
13 | Cc1ccccc1S(C)(=O)=NC(=O)c1cnn(-c2ccc(-c3noc(C(F)(F)F)n3)cc2)c1 (centres unmarked) [Compound 19, N-(methyl(oxo)(o-tolyl)-λ^6-sulfaneylidene)-1-(4-(5-(trifluoromethyl)-1,2,4-oxadiazol-3-yl)phenyl)-1H-pyrazole-4-carboxamide] | – | ≤ 70%
14 | Cc1cccc(S(C)(=O)=NC(=O)c2ccn(-c3ccc(-c4noc(C(F)(F)F)n4)cc3)c2)c1 (centres unmarked) [Compound 24, N-(methyl(oxo)(m-tolyl)-λ^6-sulfanylidene)-1-(4-(5-(trifluoromethyl)-1,2,4-oxadiazol-3-yl)phenyl)-1H-pyrrole-3-carboxamide] | ≥ 70% | –
15 | COc1ccc(CNC(=O)Cc2cn(-c3ccc(-c4noc(C(F)(F)F)n4)cc3)cn2)cc1 [Compound 5, N-(4-methoxybenzyl)-2-(1-(4-(5-(trifluoromethyl)-1,2,4-oxadiazol-3-yl)phenyl)-1H-imidazol-4-yl)acetamide] | – | ≤ 70%
16 | O=C(Cc1cn(-c2ccc(-c3noc(C(F)(F)F)n3)cc2)cn1)Nc1cccnc1 [Compound 13, N-(pyridin-3-yl)-2-(1-(4-(5-(trifluoromethyl)-1,2,4-oxadiazol-3-yl)phenyl)-1H-imidazol-4-yl)acetamide] | – | ≤ 70%
17 | COc1cccc(NC(=O)Cc2cn(-c3ccc(-c4noc(C(F)(F)F)n4)cc3)cn2)c1 [Compound 12, N-(3-methoxyphenyl)-2-(1-(4-(5-(trifluoromethyl)-1,2,4-oxadiazol-3-yl)phenyl)-1H-imidazol-4-yl)acetamide] | – | ≤ 70%
18 | CCOC(=O)Cc1cn(-c2ccc(-c3noc(C(F)(F)F)n3)cc2)cn1 [Compound 1, Ethyl 2-(1-(4-(5-(trifluoromethyl)-1,2,4-oxadiazol-3-yl)phenyl)-1H-imidazol-4-yl)acetate] | – | ≤ 70%
19 | CS(=O)(=NC(=O)c1ccn(-c2ccc(-c3noc(C(F)(F)F)n3)cc2)c1)c1ccc(F)cc1 (centres unmarked) [Compound 27, N-((4-fluorophenyl)(methyl)(oxo)-λ^6-sulfanylidene)-1-(4-(5-(trifluoromethyl)-1,2,4-oxadiazol-3-yl)phenyl)-1H-pyrrole-3-carboxamide] | – | ≤ 70%
20 | O=C(Cc1cn(-c2ccc(-c3noc(C(F)(F)F)n3)cc2)cn1)Nc1ccccc1Br [Compound 14, N-(2-bromophenyl)-2-(1-(4-(5-(trifluoromethyl)-1,2,4-oxadiazol-3-yl)phenyl)-1H-imidazol-4-yl)acetamide] | – | ≤ 70%
21 | COc1ccc(S(C)(=O)=NC(=O)c2cnn(-c3ccc(-c4noc(C(F)(F)F)n4)cc3)c2)cc1 (centres unmarked) [Compound 21, N-((4-methoxyphenyl)(methyl)(oxo)-λ^6-sulfaneylidene)-1-(4-(5-(trifluoromethyl)-1,2,4-oxadiazol-3-yl)phenyl)-1H-pyrazole-4-carboxamide] | – | ≤ 70%
22 | COc1ccnc(S(C)(=O)=NC(=O)c2ccn(-c3ccc(-c4noc(C(F)(F)F)n4)cc3)c2)c1 (centres unmarked) [Compound 29, N-((4-methoxypyridin-2-yl)(methyl)(oxo)-λ^6-sulfanylidene)-1-(4-(5-(trifluoromethyl)-1,2,4-oxadiazol-3-yl)phenyl)-1H-pyrrole-3-carboxamide] | ≥ 70% | ≤ 70%
23 | CS(=O)(=NC(=O)c1cnn(-c2ccc(-c3noc(C(F)(F)F)n3)cc2)c1)c1cccc(F)c1 (centres unmarked) [Compound 23, N-((3-fluorophenyl)(methyl)(oxo)-λ^6-sulfanylidene)-1-(4-(5-(trifluoromethyl)-1,2,4-oxadiazol-3-yl)phenyl)-1H-pyrazole-4-carboxamide] | – | ≤ 70%
24 | Cc1ccc(NC(=O)Cc2cn(-c3ccc(-c4noc(C(F)(F)F)n4)cc3)cn2)cc1 [Compound 8, N-(p-tolyl)-2-(1-(4-(5-(trifluoromethyl)-1,2,4-oxadiazol-3-yl)phenyl)-1H-imidazol-4-yl)acetamide] | – | ≤ 70%
25 | O=C(Cc1cn(-c2ccc(-c3noc(C(F)(F)F)n3)cc2)cn1)N1CCCCC1 [Compound 11, 1-(piperidin-1-yl)-2-(1-(4-(5-(trifluoromethyl)-1,2,4-oxadiazol-3-yl)phenyl)-1H-imidazol-4-yl)ethan-1-one] | – | ≤ 70%
26 | O=C(Cc1cn(-c2ccc(-c3noc(C(F)(F)F)n3)cc2)cn1)Nc1cccc(F)c1 [Compound 10, N-(3-fluorophenyl)-2-(1-(4-(5-(trifluoromethyl)-1,2,4-oxadiazol-3-yl)phenyl)-1H-imidazol-4-yl)acetamide] | – | ≤ 70%
27 | COc1cc(F)ccc1NC(=O)Cc1cn(-c2ccc(-c3noc(C(F)(F)F)n3)cc2)cn1 [Compound 17, N-(4-fluoro-2-methoxyphenyl)-2-(1-(4-(5-(trifluoromethyl)-1,2,4-oxadiazol-3-yl)phenyl)-1H-imidazol-4-yl)acetamide] | ≥ 70% | ≤ 70%
28 | O=C(Cc1cn(-c2ccc(-c3noc(C(F)(F)F)n3)cc2)cn1)NCc1ccccc1 [Compound 4, N-benzyl-2-(1-(4-(5-(trifluoromethyl)-1,2,4-oxadiazol-3-yl)phenyl)-1H-imidazol-4-yl)acetamide] | – | ≤ 70%
